In patent US8404742B2, “Diosmetin compounds, a process for their preparation and pharmaceutical compositions containing them” (Les Laboratories Server, priority 2008, dated 2013):

Columns and labels:
NADPH oxidase = experiment: In vitro inhibition of the activity of NADPH oxidase in HUVEC (angiotensin II, lucigenin luminescence); type: cell-based, human; details: 100 μM compound, angiotensin II 1 μM induction, control = 100%, n=3
Description: The study is carried out on human endothelial cells HUVEC (Human Umbilical Vein Endothelial Cells, Clonetics Co). The cells are cultured in an EBM2 medium (Endothelial Basal Medium, Clonetics Co) supplemented with 2% FCS (Fœtal Calf Serum) and EGM2 (Endothelial Growth Medium, Clonetics Co).
The cells are incubated in the presence of solvent (0.1% DMSO, compound of Example 1 control), EBM2 (compound of Example 2 control and compound of Example 3 control), compound of Example 1 (100 μM), compound of Example 2 (100 μM) or compound of Example 3 (100 μM) for 15 minutes and then activated using angiotensin II (1 μM) for 30 minutes in order to activate the NADPH oxidase. The cells are washed with EBM2, and then the NADPH oxidase substrate (NADPH, 200 μM) and lucigenin (25 μM) are added. The reduction in lucigenin by the superoxide anions produced by the NADPH oxidase is quantified using a luminometer. The number of counts per second (cps) of the control groups is compared to the treatment groups. The cps obtained with the control groups are considered as 100% NADPH oxidase activity.
The activity of the compounds of Examples 1, 2 and 3 is evaluated as a function of the number of cps obtained, that activity being greater the lower the number of cps.

[1] = system: Leukocyte adhesion to the endothelial cells in the post-capillary venules; experiment: In vivo inhibition of leukocyte adhesion (ischaemia/reperfusion, hamster cheek pouch); design: species or system hamsters; details: 3 mg/kg oral single dose, n=3
Description: Three groups of 3 hamsters, weighing from 90 to 110 g, are used in this study. Thirty minutes before anaesthesia, the hamsters are treated orally with a single dose of placebo (gum arabic 10%), of compound of Example 1 (3 mg/kg) or of reference compound (3 mg/kg). The animals are anaesthetised with pentobarbital 50 mg/kg by intraperitoneal administration. The hamsters are placed under a microscope and the cheek pouch is isolated and immersed in a perfusion solution (NaCl 110.0 mM, KCl 4.7 mM, CaCl2 2.0 mM, MgSO4 1.2 mM, NaHCO3 18.0 mM, Hepes 15.39 mM and Hepes Na^+-salt 14.61 mM), (Duling, The preparation and use of the hamster cheek pouch for studies of the microcirculation, 1973, Microvasc. Res. 5: 423-429; Svensjö et al., The hamster cheek pouch preparation as a model for studies of macromolecular permeability of the microvasculature, 1978, Uppsala J. Med. Sci. 83: 71-79).
Local ischaemia is brought about with the aid of a latex tube fitted at the entrance to the cheek pouch. The intratubular pressure of the tube is increased to 200-220 mm Hg with the aid of a calibrated syringe. This total occlusion is carried out for 30 minutes and then reperfusion is performed for 45 minutes. Leukocyte adhesion to the endothelial cells in the post-capillary venules is quantified in a field of 6 mm^2 immediately after the […] (defined as 100%) and then at different times after reperfusion (0, 15, 30 and 45 minutes).

washed platelets = experiment: In vitro inhibition of platelet aggregation (collagen-induced, washed platelets, turbidimetry); details: Oryctolagus cuniculus, read-out: percentage inhibition of platelet aggregation
Description: The platelet-rich plasma is obtained by centrifugation. The platelets are then washed by centrifugation.
The washed platelets are resuspended in a Tyrode buffer. […] After 2 minutes, aggregation is brought about using collagen (4 μg/ml); the response is then recorded for 6 minutes. Platelet aggregation is quantified by means of turbidimetry, that is to say the percentage light that is transmitted through the platelet suspension with respect to a cell containing Tyrode and a cell containing the solvent (0.1% DMSO).

Row | SMILES | NADPH oxidase activity (%/control group) (NADPH oxidase) | number of leukocytes adhering to endothelial cells in post-capillary venules (number after ischaemia = 100%) ([1]; 0 minutes after reperfusion) | number of leukocytes adhering to endothelial cells in post-capillary venules (number after ischaemia = 100%) ([1]; 15 minutes after reperfusion) | number of leukocytes adhering to endothelial cells in post-capillary venules (number after ischaemia = 100%) ([1]; 30 minutes after reperfusion) | number of leukocytes adhering to endothelial cells in post-capillary venules (number after ischaemia = 100%) ([1]; 45 minutes after reperfusion) | inhibition at 30 µM (washed platelets)
1 | C=C(C)Cc1c(-c2cc(=O)c3c(O)c(CC(=C)C)c(O)c(CC(=C)C)c3o2)ccc(OC)c1O[C@@H]1O[C@H](C(=O)O)[C@@H](O)[C@H](O)[C@H]1O [Example 3, 3-[5,7-Dihydroxy-6,8-bis(isobut-2-en-1-yl)-4-oxo-4H-chromen-2-yl]-6-methoxy-2-(isobut-2-en-1-yl)phenyl-beta-D-glucuronic acid] | 18.45 ± 4.08% | – | – | – | – | –
2 | C=C(C)Cc1c(-c2cc(=O)c3c(O)c(CC(=C)C)c(O[C@@H]4O[C@H](C(=O)O)[C@@H](O)[C@H](O)[C@H]4O)c(CC(=C)C)c3o2)ccc(OC)c1O [Example 2, (5-Hydroxy-2-[3-hydroxy-4-methoxy-2-(isobut-2-en-1-yl)phenyl]-6,8-bis(isobut-2-en-1-yl)-4-oxo-4H-chromen-7-yl)-beta-D-glucuronic acid] | 30.60 ± 4.83% | – | – | – | – | –
3 | C=C(C)Cc1c(-c2cc(=O)c3c(O)c(CC(=C)C)c(O)c(CC(=C)C)c3o2)ccc(OC)c1O [Example 1, 6,8,2′-Tris(isobut-2-en-1-yl)diosmetin] | 38.16 ± 3.13% | 81.7 ± 19.1% | 100 ± 13.7% | 91.0 ± 18.7% | 109.3 ± 23.0% | 36.6 ± 9.9%
